This is an account of results in US20080125466A1, “Aryl-Substituted Benzo[D]Isothiazol-3-Ylamine Analogues” (NEUROGEN CORPORATION, priority 2003, published 2008).

The test has as its target T1, human capsaicin receptor (Homo sapiens, UniProt Q8NER1).
T1 construct: transfected with the pBK-CMV expression construct encoding the full length human capsaicin receptor; expressed in transfected cells
As to the kind of experiment: Calcium mobilization assay (antagonist and agonist activity). The format is cell-based. Particulars: capsaicin as positive control in agonist assay; read-out: approximate EC90 concentration. On the procedure: This Example illustrates representative calcium mobilization assays for use in evaluating test compounds for agonist and antagonist activity.
The culture medium is emptied from the 96 well plates and FLUO-3 AM calcium sensitive dye (Molecular Probes, Eugene, Oreg.) is added to each well (dye solution: 1 mg FLUO-3 AM, 440 μL DMSO and 440 μl 20% pluronic acid in DMSO, diluted 1:250 in Krebs-Ringer HEPES (KRH) buffer (25 mM HEPES, 5 mM KCl, 0.96 mM NaH2PO4, 1 mM MgSO4, 2 mM CaCl2, 5 mM glucose, 1 mM probenecid, pH 7.4), 50 μl diluted solution per well). Plates are covered with aluminum foil and incubated at 37° C. for 1-2 hours in an environment containing 5% CO2. […]
To measure the ability of a test compound to agonize or antagonize a calcium mobilization response in cells expressing capsaicin receptors to capsaicin or other vanilloid agonist, the EC50 of the agonist capsaicin is first determined. […] Capsaicin-induced calcium mobilization is monitored using either FLUOROSKAN ASCENT (Labsystems; Franklin, Mass.) or FLIPR (fluorometric imaging plate reader system; Molecular Devices, Sunnyvale, Calif.) instruments. […]
In this equation, y is the maximum fluorescence signal, x is the concentration of the agonist or antagonist (in this case, capsaicin), a is the Emax, b corresponds to the EC50 value and c is the Hill coefficient. […]
Background: Calcium flux is commonly read through the fluorescence of an indicator in the cells.

T1 sequence (Q8NER1 whole entry): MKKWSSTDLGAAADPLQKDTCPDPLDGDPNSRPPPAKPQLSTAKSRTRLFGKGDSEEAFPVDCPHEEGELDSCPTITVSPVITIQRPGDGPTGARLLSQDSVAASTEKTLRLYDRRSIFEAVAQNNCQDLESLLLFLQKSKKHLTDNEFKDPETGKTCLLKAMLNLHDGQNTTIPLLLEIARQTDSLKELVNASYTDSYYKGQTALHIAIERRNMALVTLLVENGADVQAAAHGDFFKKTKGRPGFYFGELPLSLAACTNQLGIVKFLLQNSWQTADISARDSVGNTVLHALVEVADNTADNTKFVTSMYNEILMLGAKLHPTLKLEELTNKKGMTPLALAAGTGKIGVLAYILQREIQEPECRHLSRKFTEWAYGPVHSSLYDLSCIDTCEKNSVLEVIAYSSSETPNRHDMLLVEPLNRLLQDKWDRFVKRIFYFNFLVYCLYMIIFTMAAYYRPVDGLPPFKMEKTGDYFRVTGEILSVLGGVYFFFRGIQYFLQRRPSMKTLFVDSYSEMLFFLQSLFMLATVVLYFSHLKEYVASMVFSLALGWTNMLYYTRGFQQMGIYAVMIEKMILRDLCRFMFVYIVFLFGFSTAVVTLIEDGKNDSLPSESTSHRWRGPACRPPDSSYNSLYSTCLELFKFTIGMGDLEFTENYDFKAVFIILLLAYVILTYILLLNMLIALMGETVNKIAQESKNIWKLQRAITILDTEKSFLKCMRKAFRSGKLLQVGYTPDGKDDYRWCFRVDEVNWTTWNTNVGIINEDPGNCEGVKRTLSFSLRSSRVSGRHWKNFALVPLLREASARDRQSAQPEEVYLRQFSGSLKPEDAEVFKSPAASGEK

Take `COc1cc(CNC(=O)CCCC/C=C/C(C)C)ccc1O` [capsaicin]: the EC90 is around 100 nM.
